Test results: PubChem BioAssay (NCI)
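How tested: cells in 96-well plates exposed to compound for 48 hours at five concentrations. GI50 is the concentration that inhibits growth by half. TGI: concentration producing complete growth inhibition.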

Key:
Assay in all cases: DTP human tumour cell line panel, 48 h
[1] = tested on: A498 renal
[2] = tested on: A549 NSCLC
[3] = tested on: ACHN renal
[4] = tested on: BT-549 breast
[5] = tested on: CAKI-1 renal
[6] = tested on: CCRF-CEM leukemia
[7] = tested on: COLO 205 colon
[8] = tested on: DU-145 prostate
[9] = tested on: EKVX NSCLC
[10] = tested on: HCC-2998 colon
[11] = tested on: HCT-116 colon
[12] = tested on: HCT-15 colon
[13] = tested on: HL-60(TB) leukemia
[14] = tested on: HOP-62 NSCLC
[15] = tested on: HOP-92 NSCLC
[16] = tested on: HS 578T breast
[17] = tested on: HT29 colon
[18] = tested on: IGROV1 ovarian
[19] = tested on: K-562 leukemia
[20] = tested on: KM12 colon
[21] = tested on: LOX IMVI melanoma
[22] = tested on: M14 melanoma
[23] = tested on: MALME-3M melanoma
[24] = tested on: MCF7 breast
[25] = tested on: MDA-MB-231 breast
[26] = tested on: MDA-MB-435
[27] = tested on: MOLT-4 leukemia
[28] = tested on: NCI-H226 lung
[29] = tested on: NCI-H23 lung
[30] = tested on: NCI-H460 lung
[31] = tested on: NCI-H522 lung
[32] = tested on: NCI/ADR-RES ovarian
[33] = tested on: OVCAR-3 ovarian
[34] = tested on: OVCAR-4 ovarian
[35] = tested on: OVCAR-5 ovarian
[36] = tested on: OVCAR-8 ovarian
[37] = tested on: RPMI-8226 leukemia
[38] = tested on: RXF 393 renal
[39] = tested on: SF-268 CNS
[40] = tested on: SF-295 CNS
[41] = tested on: SF-539 CNS
[42] = tested on: SK-MEL-2 melanoma
[43] = tested on: SK-MEL-28 melanoma
[44] = tested on: SK-MEL-5 melanoma
[45] = tested on: SK-OV-3 ovarian
[46] = tested on: SN12C renal
[47] = tested on: SNB-19 CNS
[48] = tested on: SNB-75 CNS
[49] = tested on: SR leukemia
[50] = tested on: SW-620 colon
[51] = tested on: T-47D breast
[52] = tested on: TK-10 renal
[53] = tested on: U251 CNS
[54] = tested on: UACC-257 melanoma
[55] = tested on: UO-31 renal

SMILES: COc1ccccc1C1C(C#N)=C(N)Oc2n[nH]c(C)c21 (stereo not given)
- GI50 [1]: > 100 µM
- TGI [1]: > 100 µM
- GI50 [2]: > 100 µM
- TGI [2]: > 100 µM
- GI50 [3]: > 100 µM
- TGI [3]: > 100 µM
- GI50 [4]: > 100 µM
- TGI [4]: > 100 µM
- GI50 [5]: > 100 µM
- TGI [5]: > 100 µM
- GI50 [6]: 22.8 µM
- TGI [6]: > 100 µM
- GI50 [7]: > 100 µM
- TGI [7]: > 100 µM
- GI50 [8]: > 100 µM
- TGI [8]: > 100 µM
- GI50 [9]: > 100 µM
- TGI [9]: > 100 µM
- GI50 [10]: > 100 µM
- TGI [10]: > 100 µM
- GI50 [11]: 90.7 µM
- TGI [11]: > 100 µM
- GI50 [12]: > 100 µM
- TGI [12]: > 100 µM
- GI50 [13]: 62 µM
- TGI [13]: > 100 µM
- GI50 [14]: > 100 µM
- TGI [14]: > 100 µM
- GI50 [15]: 41.2 µM
- TGI [15]: > 100 µM
- GI50 [16]: 27.8 µM
- TGI [16]: > 100 µM
- GI50 [17]: > 100 µM
- TGI [17]: > 100 µM
- GI50 [18]: 37.7 µM
- TGI [18]: 95.7 µM
- GI50 [19]: > 100 µM
- TGI [19]: > 100 µM
- GI50 [20]: > 100 µM
- TGI [20]: > 100 µM
- GI50 [21]: > 100 µM
- TGI [21]: > 100 µM
- GI50 [22]: > 100 µM
- TGI [22]: > 100 µM
- GI50 [23]: > 100 µM
- TGI [23]: > 100 µM
- GI50 [24]: > 100 µM
- TGI [24]: > 100 µM
- GI50 [25]: 15.1 µM
- TGI [25]: > 100 µM
- GI50 [26]: 75.1 µM
- TGI [26]: > 100 µM
- GI50 [27]: > 100 µM
- TGI [27]: > 100 µM
- GI50 [28]: 74.5 µM
- TGI [28]: > 100 µM
- GI50 [29]: > 100 µM
- TGI [29]: > 100 µM
- GI50 [30]: > 100 µM
- TGI [30]: > 100 µM
- GI50 [31]: 56.3 µM
- TGI [31]: > 100 µM
- GI50 [32]: > 100 µM
- TGI [32]: > 100 µM
- GI50 [33]: > 100 µM
- TGI [33]: > 100 µM
- GI50 [34]: > 100 µM
- TGI [34]: > 100 µM
- GI50 [35]: > 100 µM
- TGI [35]: > 100 µM
- GI50 [36]: > 100 µM
- TGI [36]: > 100 µM
- GI50 [37]: 10.5 µM
- TGI [37]: 29.6 µM
- GI50 [38]: > 100 µM
- TGI [38]: > 100 µM
- GI50 [39]: > 100 µM
- TGI [39]: > 100 µM
- GI50 [40]: > 100 µM
- TGI [40]: > 100 µM
- GI50 [41]: > 100 µM
- TGI [41]: > 100 µM
- GI50 [42]: > 100 µM
- TGI [42]: > 100 µM
- GI50 [43]: > 100 µM
- TGI [43]: > 100 µM
- GI50 [44]: 59 µM
- TGI [44]: > 100 µM
- GI50 [45]: > 100 µM
- TGI [45]: > 100 µM
- GI50 [46]: 14.8 µM
- TGI [46]: > 100 µM
- GI50 [47]: > 100 µM
- TGI [47]: > 100 µM
- GI50 [48]: > 100 µM
- TGI [48]: > 100 µM
- GI50 [49]: 37.8 µM
- TGI [49]: > 100 µM
- GI50 [50]: > 100 µM
- TGI [50]: > 100 µM
- GI50 [51]: > 100 µM
- TGI [51]: > 100 µM
- GI50 [52]: > 100 µM
- TGI [52]: > 100 µM
- GI50 [53]: 92.9 µM
- TGI [53]: > 100 µM
- GI50 [54]: > 100 µM
- TGI [54]: > 100 µM
- GI50 [55]: > 100 µM
- TGI [55]: > 100 µM
